Details: Liquid, Vibrating tube method

CCCCCCCCCC [decane]
Details | mass density [kg/m3]
313.09 K, 1048 kPa | 715.63
313.09 K, 2010 kPa | 716.43
313.09 K, 2997 kPa | 717.28
313.09 K, 4060 kPa | 718.18
313.09 K, 5029 kPa | 718.98
313.09 K, 6019 kPa | 719.8
313.09 K, 7016 kPa | 720.64
313.09 K, 8050 kPa | 721.47
313.09 K, 9000 kPa | 722.24
313.09 K, 10029 kPa | 723.06
313.09 K, 11016 kPa | 723.85
313.09 K, 12012 kPa | 724.63
313.09 K, 13027 kPa | 725.4
313.09 K, 14011 kPa | 726.15
313.09 K, 15010 kPa | 726.91
313.09 K, 16030 kPa | 727.65
313.09 K, 17016 kPa | 728.38
313.09 K, 18037 kPa | 729.1
313.09 K, 19000 kPa | 729.81
313.09 K, 20019 kPa | 730.5
313.09 K, 21014 kPa | 731.21
313.09 K, 22032 kPa | 731.92
313.09 K, 23021 kPa | 732.62
313.09 K, 24016 kPa | 733.33
313.09 K, 25012 kPa | 734.06
323.03 K, 1025 kPa | 707.94
323.03 K, 2017 kPa | 708.85
323.03 K, 3015 kPa | 709.76
323.03 K, 4018 kPa | 710.65
323.03 K, 5022 kPa | 711.53
323.03 K, 6021 kPa | 712.41
323.03 K, 7018 kPa | 713.31
323.03 K, 8022 kPa | 714.15
323.03 K, 9016 kPa | 715.01
323.03 K, 10012 kPa | 715.84
323.03 K, 11022 kPa | 716.67
323.03 K, 12015 kPa | 717.51
323.03 K, 13020 kPa | 718.33
323.03 K, 14011 kPa | 719.12
323.03 K, 15010 kPa | 719.9
323.03 K, 16019 kPa | 720.71
323.03 K, 17010 kPa | 721.46
323.03 K, 18013 kPa | 722.22
323.03 K, 19033 kPa | 723
323.03 K, 20022 kPa | 723.74
323.03 K, 21014 kPa | 724.45
323.03 K, 22023 kPa | 725.22
323.03 K, 23025 kPa | 725.93
323.03 K, 24016 kPa | 726.68
323.03 K, 25021 kPa | 727.42
332.95 K, 1022 kPa | 700.4
332.95 K, 2005 kPa | 701.33
332.95 K, 3025 kPa | 702.32
332.95 K, 4025 kPa | 703.25
332.95 K, 5018 kPa | 704.2
332.95 K, 6018 kPa | 705.12
332.95 K, 7019 kPa | 706.08
332.95 K, 8023 kPa | 706.96
332.95 K, 9021 kPa | 707.89
332.95 K, 10017 kPa | 708.78
332.95 K, 11033 kPa | 709.68
332.95 K, 12023 kPa | 710.54
332.95 K, 13009 kPa | 711.42
332.95 K, 14016 kPa | 712.21
332.95 K, 15025 kPa | 713.05
332.95 K, 16011 kPa | 713.87
332.95 K, 17017 kPa | 714.69
332.95 K, 18016 kPa | 715.5
332.95 K, 19015 kPa | 716.28
332.95 K, 20029 kPa | 717.09
332.95 K, 21001 kPa | 717.84
332.95 K, 22034 kPa | 718.63
332.95 K, 23017 kPa | 719.41
332.95 K, 24023 kPa | 720.18
332.95 K, 25002 kPa | 720.95
343.8 K, 1014 kPa | 692.56
343.8 K, 2027 kPa | 693.64
343.8 K, 3016 kPa | 694.64
343.8 K, 4020 kPa | 695.65
343.8 K, 5016 kPa | 696.67
343.8 K, 6019 kPa | 697.68
343.8 K, 7026 kPa | 698.66
343.8 K, 8022 kPa | 699.65
343.8 K, 9014 kPa | 700.58
343.8 K, 10017 kPa | 701.53
343.8 K, 11022 kPa | 702.48
343.8 K, 12021 kPa | 703.39
343.8 K, 13011 kPa | 704.27
343.8 K, 14013 kPa | 705.16
343.8 K, 15025 kPa | 706.05
343.8 K, 16019 kPa | 706.94
343.8 K, 17010 kPa | 707.79
343.8 K, 18023 kPa | 708.61
343.8 K, 19030 kPa | 709.47
343.8 K, 20008 kPa | 710.25
343.8 K, 21017 kPa | 711.1
343.8 K, 22035 kPa | 711.92
343.8 K, 23004 kPa | 712.73
343.8 K, 24008 kPa | 713.53
343.8 K, 25103 kPa | 714.44
352.71 K, 2132 kPa | 686.04
352.71 K, 3053 kPa | 687.07
352.71 K, 4028 kPa | 688.15
352.71 K, 5028 kPa | 689.19
352.71 K, 6065 kPa | 690.28
352.71 K, 7007 kPa | 691.26
352.71 K, 8041 kPa | 692.36
352.71 K, 9064 kPa | 693.4
352.71 K, 10047 kPa | 694.38
352.71 K, 11019 kPa | 695.38
352.71 K, 12012 kPa | 696.31
352.71 K, 13031 kPa | 697.31
352.71 K, 14010 kPa | 698.18
352.71 K, 15014 kPa | 699.14
352.71 K, 16012 kPa | 700.05
352.71 K, 17008 kPa | 700.95
352.71 K, 17959 kPa | 701.8
352.71 K, 19020 kPa | 702.7
352.71 K, 20044 kPa | 703.6
352.71 K, 21044 kPa | 704.46
352.71 K, 22024 kPa | 705.31
352.71 K, 23009 kPa | 706.13
352.71 K, 24014 kPa | 707
352.71 K, 25000 kPa | 707.86
362.63 K, 2054 kPa | 678.23
362.63 K, 3010 kPa | 679.34
362.63 K, 4132 kPa | 680.68
362.63 K, 5020 kPa | 681.68
362.63 K, 6026 kPa | 682.79
362.63 K, 7042 kPa | 683.95
362.63 K, 8057 kPa | 685.06
362.63 K, 9014 kPa | 686.08
362.63 K, 10034 kPa | 687.17
362.63 K, 10999 kPa | 688.24
362.63 K, 12014 kPa | 689.26
362.63 K, 13025 kPa | 690.26
362.63 K, 13992 kPa | 691.22
362.63 K, 15019 kPa | 692.24
362.63 K, 16004 kPa | 693.18
362.63 K, 17008 kPa | 694.11
362.63 K, 18002 kPa | 695.04
362.63 K, 19037 kPa | 696.02
362.63 K, 20027 kPa | 696.93
362.63 K, 21030 kPa | 697.8
362.63 K, 22003 kPa | 698.73
362.63 K, 23027 kPa | 699.61
362.63 K, 24046 kPa | 700.55
362.63 K, 25011 kPa | 701.39

Reference: the NIST ThermoML archive (doi:10.1021/je050020m)
